This is an account of results in the supplement of paper PMC10307832.

Common to all, as to assay: relative viability (nuclei count vs DMSO), 5 days (fraction); higher = more cells survive
Compound in experiment [1]: C1CSC2=C(C(=O)N1)SC3=C2C=C(C=C3)O [kb NB 142-70] + C[C@@H](Oc1cc(-c2cnn(C3CCNCC3)c2)cnc1N)c1c(Cl)ccc(F)c1Cl [Crizotinib] (partner 1 µM)
In a few lines:
(§1)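 Cells from lung cancer lines were seeded into 1536-well plates and, one day later, dosed by pin tool. Treatments were either a single drug or a fixed dose of an anchor drug with five library-drug doses (not always all listed) in √10 steps. After 5 days, nuclei were stained in a one-step fixation (final 0.05% Triton X-100, 1% formaldehyde, 1 ug/ml Hoechst) and counted on 4× images, and relative viability is the treated-to-vehicle nuclei ratio, as the median of duplicate plates.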

Compound in experiment [2]: NCC(=O)Nc1ccc(-n2nc(C(F)(F)F)cc2-c2ccc3c(ccc4ccccc43)c2)cc1 + CC(C)C[C@H](NC(=O)[C@H](Cc1ccccc1)NC(=O)c1cnccn1)B(O)O [Bortezomib] (partner 0.002 µM)
In short, it runs like this: as §1

Compound in experiment [3]: C1CSC2=C(C(=O)N1)SC3=C2C=C(C=C3)O [kb NB 142-70] + Nc1nc2[nH]cc(CCc3ccc(C(=O)N[C@@H](CCC(=O)O)C(=O)O)cc3)c2c(=O)[nH]1 [Pemetrexed] (partner 0.2 µM)
In a few lines: as §1

Compound in experiment [4]: C1CSC2=C(C(=O)N1)SC3=C2C=C(C=C3)O [kb NB 142-70] + CCNC(=O)c1noc(-c2cc(C(C)C)c(O)cc2O)c1-c1ccc(CN2CCOCC2)cc1 [Luminespib] (partner 0.01 µM)
In short, it runs like this: as §1

Compound in experiment [5]: NCC(=O)Nc1ccc(-n2nc(C(F)(F)F)cc2-c2ccc3c(ccc4ccccc43)c2)cc1 + C[C@]1(O)C[C@@H](c2nc(-c3ccc4ccc(-c5ccccc5)nc4c3)c3c(N)nccn32)C1 [Linsitinib] (partner 1 µM)
In a few lines: as §1

As for PC-3 [JPC-3], the relative viability in experiment [1] (first compound 0.1 µM) came out at 0.985; in experiment [1] (first compound 1 µM), 1.05; in experiment [1] (first compound 3.162 µM) it was 0.916; in experiment [2] (first compound 0.02 µM), 0.763; in experiment [2] (first compound 0.06325 µM), 0.853; in experiment [2] (first compound 0.2 µM) it was 0.8. In addition, the relative viability was 0.816 in experiment [2] (first compound 0.6325 µM); 0.929 in experiment [2] (first compound 2 µM); 1.11 in experiment [3] (first compound 0.1 µM); 1 in experiment [3] (first compound 1 µM); 0.559 in experiment [3] (first compound 3.162 µM); 0.709 in experiment [4] (first compound 0.1 µM). Besides, the relative viability stood at 0.817 in experiment [4] (first compound 1 µM); 0.627 in experiment [4] (first compound 3.162 µM); 0.957 in experiment [5] (first compound 0.02 µM); 0.977 in experiment [5] (first compound 0.06325 µM); 0.992 in experiment [5] (first compound 0.2 µM); 0.963 in experiment [5] (first compound 0.6325 µM). For the same cell line, the relative viability in experiment [5] (first compound 2 µM) is 0.961.

Consider PC-14, for which the relative viability in experiment [1] (first compound 0.1 µM) amounted to 0.933; in experiment [1] (first compound 1 µM), 0.909; in experiment [1] (first compound 3.162 µM), 0.92; in experiment [2] (first compound 0.02 µM), 0.966; in experiment [2] (first compound 0.06325 µM), 0.822; in experiment [2] (first compound 0.2 µM) it was 1.06. Besides, the relative viability in experiment [2] (first compound 0.6325 µM) is 0.895; in experiment [2] (first compound 2 µM), 0.858; in experiment [3] (first compound 0.1 µM), 0.134; in experiment [3] (first compound 1 µM), 0.148; in experiment [3] (first compound 3.162 µM), 0.139; in experiment [4] (first compound 0.1 µM), 0.149. In addition, the relative viability in experiment [4] (first compound 1 µM) stood at 0.173; in experiment [4] (first compound 3.162 µM), 0.13; in experiment [5] (first compound 0.02 µM) it was 1.07; in experiment [5] (first compound 0.06325 µM) it was 0.917; in experiment [5] (first compound 0.2 µM) it was 1.05; in experiment [5] (first compound 0.6325 µM), 0.936. Besides, the relative viability in experiment [5] (first compound 2 µM) came to 0.993.

Regarding RERF-LC-KJ, the relative viability turned out to be 0.819 in experiment [1] (first compound 0.1 µM); 0.93 in experiment [1] (first compound 1 µM); 0.924 in experiment [1] (first compound 3.162 µM); 1.11 in experiment [2] (first compound 0.02 µM); 1.19 in experiment [2] (first compound 0.06325 µM); 1.15 in experiment [2] (first compound 0.2 µM). Also, the relative viability in experiment [2] (first compound 0.6325 µM) was 1.26; in experiment [2] (first compound 2 µM), 1.14; in experiment [3] (first compound 0.1 µM), 0.461; in experiment [3] (first compound 1 µM), 0.477; in experiment [3] (first compound 3.162 µM), 0.417; in experiment [4] (first compound 0.1 µM), 1.33. For the same cell line, the relative viability in experiment [4] (first compound 1 µM) was found to be 1.27; in experiment [4] (first compound 3.162 µM), 0.936; in experiment [5] (first compound 0.02 µM) it was 0.923; in experiment [5] (first compound 0.06325 µM), 0.84; in experiment [5] (first compound 0.2 µM), 0.9; in experiment [5] (first compound 0.6325 µM), 0.857. For the same cell line, the relative viability in experiment [5] (first compound 2 µM) amounted to 0.982.

For SK-LU-1, the relative viability in experiment [1] (first compound 0.1 µM) came out at 0.861; in experiment [1] (first compound 1 µM), 0.691; in experiment [1] (first compound 3.162 µM), 0.45; in experiment [2] (first compound 0.02 µM), 1.07; in experiment [2] (first compound 0.06325 µM), 1.22; in experiment [2] (first compound 0.2 µM), 1.23. Moreover, the relative viability in experiment [2] (first compound 0.6325 µM) was found to be 1.07; in experiment [2] (first compound 2 µM) it was 1.31; in experiment [3] (first compound 0.1 µM), 0.958; in experiment [3] (first compound 1 µM) it was 0.954; in experiment [3] (first compound 3.162 µM), 0.412; in experiment [4] (first compound 0.1 µM), 0.198. Besides, the relative viability in experiment [4] (first compound 1 µM) worked out at 0.199; in experiment [4] (first compound 3.162 µM), 0.204; in experiment [5] (first compound 0.02 µM), 1.16; in experiment [5] (first compound 0.06325 µM), 1.1; in experiment [5] (first compound 0.2 µM) it was 1.5; in experiment [5] (first compound 0.6325 µM), 1.15. Also, the relative viability in experiment [5] (first compound 2 µM) worked out at 1.15.

With SW 1573, the relative viability in experiment [1] (first compound 0.1 µM) worked out at 0.832; in experiment [1] (first compound 1 µM), 0.815; in experiment [1] (first compound 3.162 µM), 0.526; in experiment [2] (first compound 0.02 µM), 1.16; in experiment [2] (first compound 0.06325 µM) it was 1.28; in experiment [2] (first compound 0.2 µM), 1.05. The relative viability was 0.894 in experiment [2] (first compound 0.6325 µM); 1.02 in experiment [2] (first compound 2 µM); 0.81 in experiment [3] (first compound 0.1 µM); 0.744 in experiment [3] (first compound 1 µM); 0.36 in experiment [3] (first compound 3.162 µM); 0.21 in experiment [4] (first compound 0.1 µM). The relative viability in experiment [4] (first compound 1 µM) was 0.413; in experiment [4] (first compound 3.162 µM) it was 0.149; in experiment [5] (first compound 0.02 µM), 0.851; in experiment [5] (first compound 0.06325 µM) it was 0.748; in experiment [5] (first compound 0.2 µM), 0.863; in experiment [5] (first compound 0.6325 µM), 0.846. For the same cell line, the relative viability in experiment [5] (first compound 2 µM) was determined as 0.789.

As to UMC-11, the relative viability is 0.698 in experiment [1] (first compound 0.1 µM); 0.601 in experiment [1] (first compound 1 µM); 0.277 in experiment [1] (first compound 3.162 µM); 0.831 in experiment [2] (first compound 0.02 µM); 0.762 in experiment [2] (first compound 0.06325 µM); 0.693 in experiment [2] (first compound 0.2 µM). Besides, the relative viability in experiment [2] (first compound 0.6325 µM) was 0.658; in experiment [2] (first compound 2 µM), 0.674; in experiment [3] (first compound 0.1 µM), 0.861; in experiment [3] (first compound 1 µM) it was 0.779; in experiment [3] (first compound 3.162 µM), 0.549; in experiment [4] (first compound 0.1 µM), 1.02. Moreover, the relative viability in experiment [4] (first compound 1 µM) was 0.908; in experiment [4] (first compound 3.162 µM), 0.494; in experiment [5] (first compound 0.02 µM) it was 0.995; in experiment [5] (first compound 0.06325 µM) it was 1.03; in experiment [5] (first compound 0.2 µM), 1.16; in experiment [5] (first compound 0.6325 µM), 0.966. Also, the relative viability in experiment [5] (first compound 2 µM) came to 0.918.
